# Reference: patent US8623821B2, “Zymogen activators” (Genentech, Inc., priority 2011, dated 2014)
# “Also recorded” adds a separate entry of the source. Where a SMILES comes first, the peptide text is derived from it. Bridges are numbered along the chain shown (N, C = ends). [ ]: non-standard residue; d: D form.
# How the values were obtained:
# Met = assay: Binding of peptide-zHGF β complex to surface immobilized Met ECD (biolayer interferometry); conditions: read-out: affinity of peptide-zHGF β complex for Met
# Experimental: (§1) Met binding assays were carried out utilizing the OctetRed™ biolayer interferometry instrument (ForteBio, Inc.) as reported previously (Landgraf, K. E. et al. (2010) J Biol Chem 285: 40362-72). Biotinylated Met ECD (Sema/PSI-AviTag) was captured on the surface of streptavidin optical sensor tips (SA biosensors, ForteBio, Inc.), and transferred into buffer containing 0.5 μM scHGF β-chain variants in the presence of increasing concentration of indicated peptides. Association and dissociation reactions were monitored to ensure reversible binding between scHGF β and Met. Binding was quantified using the steady-state levels of surface response from the association reaction. Equilibrium constants were derived by least squares fitting of the titration data to a single-site binding equation. Errors reported are ±stdev of n=3 independent experiments.
# scHGF = scHGF (Homo sapiens, UniProt P14210, R494E); assay: BxPC-3 cell survival assay, peptide titrations in the presence of scHGF; type: cell-based; design: Full-length recombinant HGF proteins were expressed in 1-liter fermentation cultures of Chinese hamster ovary (CHO) cells; made in house; host or cells: CHO cells (scHGF); conditions: for activation of scHGF / cell survival, in words: peptide plus scHGF
# Experimental: (§2) BxPC-3 cells were obtained from ATCC and maintained in cell culture medium (RPMI, 10% FBS (Sigma), 50 U/ml penicillin/50 μg/ml streptomycin, 2 mM glutamine). For the survival assay, cells were plated at 10,000 cells/well in 96 well tissue culture plates (Falcon 353072) in 50 μl assay diluent (RPMI, 0.1% BSA (Sigma) 50 U/ml penicillin/50 μg/ml streptomycin, 2 mM glutamine). Cells were allowed to attach for 1-2 h in a 37° C. CO2 incubator. Human HGF proteins (HGF, scHGF or scHGF plus peptide titrations) were pre-incubated at room temperature in assay diluent. HGF/peptide mixtures were added to cells in microtiter plates in triplicate at 50 μl per well and plates were incubated at 37° C. in a CO2 incubator. Final concentrations of HGF variants were 400 ng/ml and peptide concentrations were titrated accordingly. After 72 h, 25 μl alamar Blue (Serotec, BUF012B) was added to each well and incubate an additional 2 h at 37° C. in a CO2 incubator. Plates were agitated vigorously for 10 min at room temperature, and fluorescence was read at 530-590 nm in a fluorescent plate reader.
# Using Bx-PC3 cells, peptide titrations in the presence of scHGF were performed and observed robust activation was seen of scHGF signaling through Met, which reached levels equivalent HGF-induced signaling.
# Cellular assays were used to address whether the optimized ZAPtides act as allosteric activators of pro-HGF and stimulate Met signaling in biologically relevant settings of cell survival and migration. […] Importantly, ZAPtides required the presence of scHGF as well as induced […] cell survival that was antagonized by an HGF-blocking anti-Met antibody, each confirming Met pathway selectivity.
# scHGF β = molecular target: T1, scHGF β (Homo sapiens, UniProt P14210, R494E); assay: scHGF β activation/Met binding assay (biolayer interferometry); conditions: for Kd: peptide titration with 0.5 μM scHGF β, biotinylated Met ECD on sensor, ±stdev of n=3; for AC50: peptide-dependent activation of zHGF β binding to surface immobilized Met ECD, read-out: apparent activation constant (AC50); for fold more potent than previously described peptides derived from the native HGF β N-terminus: versus Landgraf et al. 2010 peptides; for binding to scHGF β / activation of Met binding, in words: Met-coated sensor
# T1 construct: the scHGF β-chain (residues Asn^479 to Ser^728) contains the R494E mutation; His-tag (C); made in house; host or cells: insect cells (pAcGP67 vector)
# Experimental: as §1
# Based on the finding that the consensus ZAPs contain features consistent with binding and inserting into the activation pocket, several related peptides were synthesized and utilized in a previously established scHGF β activation assay to assess their affinities and ability to active Met binding (Landgraf, K. E. et al. (2010) J Biol Chem 285: 40362-72). Since scHGF β can only weakly interact with the Met Sema-PSI domain compared to the active HGF β form, biolayer interferometry was used in the activation assay to measure the ability of a peptide to directly enhance the binding affinity of scHGF β to a streptavidin sensor surface coated with biotinylated Met (Landgraf, K. E. et al. (2010) J Biol Chem 285: 40362-72). Thus, titration of an activator peptide should result in a significant increase in the surface response signal due to enhanced scHGF β binding to Met.
# scHGF β D672N mutant = molecular target: T2, scHGF β D672N mutant (Homo sapiens, UniProt P14210, D672N/R494E); assay: scHGF β activation/Met binding assay with activation-pocket mutant; conditions: Asp672 to Asn in activation pocket
# T2 construct: the scHGF β-chain (residues Asn^479 to Ser^728) contains the R494E mutation; His-tag (C); made in house; host or cells: insect cells (pAcGP67 vector)
# Experimental: as §1
# However, the partial activity observed with Asp in position 3 was consistent with the fact that the native sequence contains a highly similar Asn residue, but the strained backbone conformation necessary to accommodate the Asp during N-terminal insertion would be energetically unfavorable. […] In addition, the solubility of this peptide variant is enhanced by the polar aspartic acid side chain while maintaining increased activity compared to the IVDG.14 variant.
# Peptide solubility = type: physicochemical
# BxPC-3 cells = assay: BxPC-3 cell survival assay, HGF proteins alone; type: cell-based, human
# Experimental: as §2, with “Final concentrations of HGF variants were 400 ng/ml and peptide concentrations were titrated accordingly.” left out
# Sequence of scHGF (P14210 32-728 R494E): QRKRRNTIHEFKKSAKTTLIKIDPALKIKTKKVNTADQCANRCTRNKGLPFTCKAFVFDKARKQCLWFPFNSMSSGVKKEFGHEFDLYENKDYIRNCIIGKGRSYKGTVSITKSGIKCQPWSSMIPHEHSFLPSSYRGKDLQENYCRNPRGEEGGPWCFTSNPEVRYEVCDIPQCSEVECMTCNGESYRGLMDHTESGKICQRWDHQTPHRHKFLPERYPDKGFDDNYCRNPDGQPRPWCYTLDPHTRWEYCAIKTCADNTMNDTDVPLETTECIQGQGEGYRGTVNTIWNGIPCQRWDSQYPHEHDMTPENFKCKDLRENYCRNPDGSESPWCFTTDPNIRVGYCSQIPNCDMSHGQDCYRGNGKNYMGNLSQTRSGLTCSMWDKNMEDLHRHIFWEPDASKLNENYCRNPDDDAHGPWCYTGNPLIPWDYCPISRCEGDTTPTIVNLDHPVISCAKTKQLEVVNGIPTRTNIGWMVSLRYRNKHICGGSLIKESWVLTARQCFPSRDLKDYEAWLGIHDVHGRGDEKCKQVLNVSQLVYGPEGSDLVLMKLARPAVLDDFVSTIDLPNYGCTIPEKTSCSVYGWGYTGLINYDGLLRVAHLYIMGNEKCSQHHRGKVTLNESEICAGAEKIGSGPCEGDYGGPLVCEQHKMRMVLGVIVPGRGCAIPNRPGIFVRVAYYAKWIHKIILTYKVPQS
# T1 sequence (P14210 479-728 R494E): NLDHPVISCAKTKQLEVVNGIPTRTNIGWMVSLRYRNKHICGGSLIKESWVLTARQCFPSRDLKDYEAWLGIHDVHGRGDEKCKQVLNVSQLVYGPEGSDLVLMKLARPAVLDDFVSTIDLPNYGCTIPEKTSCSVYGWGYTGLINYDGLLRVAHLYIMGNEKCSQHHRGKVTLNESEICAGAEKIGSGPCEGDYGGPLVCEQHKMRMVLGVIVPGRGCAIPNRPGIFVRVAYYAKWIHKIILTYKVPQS
# T1 sequence (P08581 27-515 partner limits assumed): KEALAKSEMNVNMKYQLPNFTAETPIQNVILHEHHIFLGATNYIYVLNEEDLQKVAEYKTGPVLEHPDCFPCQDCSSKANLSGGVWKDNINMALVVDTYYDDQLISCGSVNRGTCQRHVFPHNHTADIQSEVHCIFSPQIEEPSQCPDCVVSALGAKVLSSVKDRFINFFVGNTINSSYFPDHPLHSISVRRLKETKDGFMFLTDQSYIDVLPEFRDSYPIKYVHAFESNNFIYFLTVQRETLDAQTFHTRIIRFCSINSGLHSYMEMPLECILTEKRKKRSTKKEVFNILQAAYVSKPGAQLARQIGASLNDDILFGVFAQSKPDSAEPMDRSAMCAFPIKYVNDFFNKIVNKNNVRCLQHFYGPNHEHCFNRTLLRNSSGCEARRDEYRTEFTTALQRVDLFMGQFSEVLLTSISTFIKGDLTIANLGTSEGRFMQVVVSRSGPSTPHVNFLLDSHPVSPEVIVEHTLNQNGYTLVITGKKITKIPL
# T2 sequence (P14210 479-728 R494E/D672N): as the sequence (P14210 479-728 R494E) above, with D194N counted along it
molecule,measurement,setting,value
"CC[C@H](C)[C@H](N)C(=O)N[C@H](C(=O)NCC(=O)NCC(=O)N[C@@H](Cc1ccc(O)cc1)C(=O)N1CCC[C@H]1C(=O)N[C@@H](Cc1c[nH]c2ccccc12)C(=O)N[C@@H](Cc1c[nH]c2ccccc12)C(=O)N[C@@H](CCSC)C(=O)N[C@@H](CC(=O)O)C(=O)N[C@H](C(N)=O)C(C)C)C(C)C [IVGG.14, I V G G Y P W W M D V] (H-IVGGYPWWMDV-NH2)",Kd,Met,690 nM
same,EC50,"scHGF; BxPC-3 cells, serum starvation, 72 h, alamar Blue, read-out: EC50 of activation of scHGF, cell survival",~20 µM
same,fold improvement of AC50 over previous activators,scHGF β,> 90 fold
same,Kd,scHGF β,34 ± 3 µM
same,AC50,scHGF β,21 µM
same,fold more potent than previously described peptides derived from the native HGF β N-terminus,scHGF β,ca. 60 fold
same,activity of peptide with scHGF β D672N,scHGF β D672N mutant,lack of activity; also recorded: completely abolished activity
"CC[C@H](C)[C@H](N)C(=O)N[C@H](C(=O)NCC(=O)NCC(=O)N[C@@H](CC(=O)O)C(=O)N[C@@H](Cc1ccc(O)cc1)C(=O)N[C@@H](Cc1c[nH]c2ccccc12)C(=O)N[C@@H](Cc1c[nH]c2ccccc12)C(=O)N[C@H](C(=O)N1CCC[C@H]1C(=O)N[C@H](C(N)=O)[C@@H](C)CC)C(C)C)C(C)C [ZAP.09, IVGGDYWWVPI] (H-IVGGDYWWVPI-NH2; N-terminus assumed)",AC50,scHGF β,42 µM
"CC[C@H](C)[C@H](N)C(=O)N[C@H](C(=O)N[C@@H](CC(=O)O)C(=O)NCC(=O)N[C@@H](Cc1ccc(O)cc1)C(=O)N1CCC[C@H]1C(=O)N[C@@H](Cc1c[nH]c2ccccc12)C(=O)N[C@@H](Cc1c[nH]c2ccccc12)C(=O)N[C@@H](CCSC)C(=O)N[C@@H](CC(=O)O)C(=O)N[C@H](C(N)=O)C(C)C)C(C)C [IVDG.14, I V D G Y P W W M D V] (H-IVDGYPWWMDV-NH2; N-terminus assumed)","activation of scHGF / cell survival, in words",scHGF; BxPC-3 cells,partial scHGF signaling activity
I V D D Y P W W M D V (IVDDYPWWMDV) [IVDD.14],"binding to scHGF β / activation of Met binding, in words",scHGF β,no detectable binding
CC[C@H](C)[C@H](N)C(=O)N[C@H](C(=O)NCC(=O)NCC(=O)N[C@H]1CSSC[C@@H](C(=O)N[C@H](C(N)=O)[C@@H](C)CC)NC(=O)[C@H](CCC(=O)O)NC(=O)[C@H](CCC(=O)O)NC(=O)[C@H](CCCNC(=N)N)NC(=O)[C@H](CC(=O)O)NC(=O)[C@H](CCSC)NC(=O)[C@H](Cc2c[nH]c3ccccc23)NC(=O)[C@H](Cc2ccc(O)cc2)NC(=O)[C@@H]2CCCN2C1=O)[C@@H](C)CC [ZAP.03] (H-IIGGCPYWMDREECI-NH2; disulfide 5-14),Kd,scHGF β,0.3 ± 0.1 µM
same,AC50,scHGF β,0.3 µM
CC[C@H](C)[C@H](N)C(=O)N[C@H](C(=O)N[C@H](CC(=O)O)C(=O)NCC(=O)N[C@@H](Cc1ccc(O)cc1)C(=O)N1CCC[C@H]1C(=O)N[C@@H](Cc1c[nH]c2ccccc12)C(=O)N[C@@H](Cc1c[nH]c2ccccc12)C(=O)N[C@@H](CCSC)C(=O)N[C@@H](CC(=O)O)C(=O)N[C@H](C(N)=O)C(C)C)C(C)C [IVdG.14] (H-IV[dD]GYPWWMDV-NH2),fold more potent than previously described peptides derived from the native HGF β N-terminus,scHGF β,100 fold
same,"solubility, in words",Peptide solubility,enhanced
G I G G C P Y W M D R E E C I (GIGGCPYWMDREECI) [ZAP.03G],"activation of scHGF / cell survival, in words",scHGF; BxPC-3 cells,dramatically hindered its activity
same,"binding to scHGF β / activation of Met binding, in words",scHGF β,significantly impairs its binding; also recorded: significantly impaired
"CC[C@H](C)[C@H](N)C(=O)N[C@H](C(=O)NCC(=O)NCC(=O)N[C@@H](CO)C(=O)N1CCC[C@H]1C(=O)N[C@@H](Cc1ccc(O)cc1)C(=O)N[C@@H](Cc1c[nH]c2ccccc12)C(=O)N[C@@H](CCSC)C(=O)N[C@@H](CC(=O)O)C(=O)N[C@@H](CCCNC(=N)N)C(=O)N[C@@H](CCC(=O)O)C(=O)N[C@@H](CCC(=O)O)C(=O)N[C@@H](CO)C(=O)N[C@H](C(N)=O)[C@@H](C)CC)[C@@H](C)CC [ZAP.03S, I I G G S P Y W M D R E E S I] (H-IIGGSPYWMDREESI-NH2; N-terminus assumed)",Kd,scHGF β,59 ± 30 µM
same,"binding to scHGF β / activation of Met binding, in words",scHGF β,significantly impaired
G V G G Y P W W M D V (GVGGYPWWMDV) [GVGG.14],"activation of scHGF / cell survival, in words",scHGF; BxPC-3 cells,no detectable activity
same,"binding to scHGF β / activation of Met binding, in words",scHGF β,lack of activity; also recorded: completely abolished activity
"CC[C@H](C)[C@H](N)C(=O)N[C@H](C(=O)NCC(=O)NCC(=O)N[C@@H](CC(=O)O)C(=O)N1CCC[C@H]1C(=O)N[C@@H](Cc1ccc(O)cc1)C(=O)N[C@@H](Cc1c[nH]c2ccccc12)C(=O)N[C@H](C(=O)N1CCC[C@H]1C(=O)N[C@@H](Cc1c[nH]cn1)C(=O)N1CCC[C@H]1C(=O)NCC(=O)N[C@@H](CC(=O)O)C(=O)N[C@@H](C)C(N)=O)C(C)C)[C@@H](C)CC [ZAP.01, I I G G D P Y W V P H P G D A] (H-IIGGDPYWVPHPGDA-NH2; N-terminus assumed)","EC50 of scHGF activation, order of magnitude in words","scHGF; Bx-PC3 cell survival, dose-titrations",micromolar
same,Kd,scHGF β,6 ± 1 µM
"HGF: proteolytically activated two-chain human hepatocyte growth factor, recombinant",stimulation of cell survival by HGF protein alone,BxPC-3 cells; 200 ng/ml (FIG. 11A),potently stimulate cell survival
same,stimulation of cell survival by HGF protein alone,BxPC-3 cells; 400 ng/ml (FIG. 6A),potently stimulate cell survival
I V G D Y P W W M D V (IVGDYPWWMDV) [IVGD.14],"binding to scHGF β / activation of Met binding, in words",scHGF β,no detectable binding
